Source: patent US20220380385A1, “PYRIMIDINE FIVE-MEMBERED NITROGEN HETEROCYCLIC DERIVATIVE, PREPARATION METHOD THEREOF AND PHARMACEUTICAL USE THEREOF” (TUOJIE BIOTECH(SHANGHAI) CO., LTD., priority 2019, published 2022)

How the values were obtained:
Assay type in all cases: in vitro ADME
[1] = target: T1, CYP1A2 (Homo sapiens, UniProt P05177); assay: CYP inhibition in mixed human liver microsomes, CYP1A2 (phenacetin)
T1 construct: Mixed human liver microsomes from 150 donors; tissue Corning 452117; host or cells: pooled human liver microsomes (150 donors)
T1 sequence (P05177 1-516): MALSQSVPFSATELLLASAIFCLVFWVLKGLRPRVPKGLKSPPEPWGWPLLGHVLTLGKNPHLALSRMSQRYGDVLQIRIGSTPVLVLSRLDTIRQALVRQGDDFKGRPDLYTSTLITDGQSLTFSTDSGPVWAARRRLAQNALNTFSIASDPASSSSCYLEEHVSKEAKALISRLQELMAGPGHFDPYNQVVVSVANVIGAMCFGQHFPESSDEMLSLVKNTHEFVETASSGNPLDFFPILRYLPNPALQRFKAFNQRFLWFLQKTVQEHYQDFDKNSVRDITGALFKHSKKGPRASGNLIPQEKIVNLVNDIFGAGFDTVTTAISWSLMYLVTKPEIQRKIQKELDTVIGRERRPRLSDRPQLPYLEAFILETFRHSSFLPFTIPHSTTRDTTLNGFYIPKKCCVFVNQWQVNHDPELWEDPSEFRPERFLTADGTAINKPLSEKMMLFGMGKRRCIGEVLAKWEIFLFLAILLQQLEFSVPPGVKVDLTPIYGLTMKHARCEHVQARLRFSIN
Experimental: (§1) Mixed human liver microsomes from 150 donors (purchased from Corning, catalog number 452117) were used to evaluate the representative substrate metabolic responses of the five main human CYP subtypes (CYP1A2, CYP2C9, CYP2C19, CYP2D6 and CYP3A4/5). The influence of different concentrations of test compounds on the metabolic responses of phenacetin (CYP1A2), diclofenac sodium (CYP2C9), S-mephenytoin (CYP2C19), bufurolol hydrochloride (2D6) and midazolam (CYP3A4/5) was determined by liquid chromatography tandem mass spectrometry (LC/MS/MS).
(§2) 200 μL of the reaction system (100 mmol/L phosphate buffer, pH 7.4, containing 0.3% DMSO, 0.6% acetonitrile and 0.1% methanol by volume respectively) with 30 µM phenacetin, 10 μM diclofenac sodium, 35 μM S-mephenytoin, 5 μM bufurolol hydrochloride, 3 μM midazolam, 1 mM NADPH, test compound (at a concentration of 0.1, 0.3, 1, 3, 10 and 30 μmol/L respectively) or positive compound or blank control and mixed human liver microsomes (0.2 mg/mL) was incubated at 37° C. for 5 minutes. […]
(§3) The peak area was calculated based on the chromatograms. The residual activity ratio (%) was calculated using the following equation: […]
(§4) The CYP median inhibitory concentration (IC50) was calculated by Excel XLfit 5.3.1.3.

[2] = target: T2, CYP2C9 (Homo sapiens, UniProt P11712); assay: CYP inhibition in mixed human liver microsomes, CYP2C9 (diclofenac sodium)
T2 construct: Mixed human liver microsomes from 150 donors; tissue Corning 452117; host or cells: pooled human liver microsomes (150 donors)
T2 sequence (P11712 whole entry): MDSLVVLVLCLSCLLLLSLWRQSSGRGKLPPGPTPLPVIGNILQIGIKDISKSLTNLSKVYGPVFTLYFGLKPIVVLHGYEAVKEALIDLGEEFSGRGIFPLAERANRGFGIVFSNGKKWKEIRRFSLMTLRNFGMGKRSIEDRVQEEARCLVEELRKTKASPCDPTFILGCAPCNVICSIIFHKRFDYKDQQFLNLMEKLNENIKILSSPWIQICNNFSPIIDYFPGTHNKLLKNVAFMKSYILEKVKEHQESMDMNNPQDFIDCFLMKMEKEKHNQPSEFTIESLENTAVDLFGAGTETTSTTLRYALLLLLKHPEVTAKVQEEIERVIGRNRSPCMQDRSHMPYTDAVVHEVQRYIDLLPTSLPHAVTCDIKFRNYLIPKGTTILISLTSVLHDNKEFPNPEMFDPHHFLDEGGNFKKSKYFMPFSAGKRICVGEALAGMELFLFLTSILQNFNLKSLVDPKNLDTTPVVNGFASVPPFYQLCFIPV
Experimental: as §1, §2, §3, §4

[3] = tested on: CYP3A4/5; assay: CYP inhibition in mixed human liver microsomes, CYP3A4/5 (midazolam); conditions: pH 7.4, mixed human liver microsomes 0.2 mg/mL, read-out: Median inhibitory concentration (IC50) CYP 3A4/5
Experimental: as §1, §2, §3, §4

[4] = target: T3, CYP2D6 (Homo sapiens, UniProt P10635); assay: CYP inhibition in mixed human liver microsomes, CYP2D6 (bufurolol hydrochloride)
T3 construct: Mixed human liver microsomes from 150 donors; tissue Corning 452117; host or cells: pooled human liver microsomes (150 donors)
T3 sequence (P10635 whole entry): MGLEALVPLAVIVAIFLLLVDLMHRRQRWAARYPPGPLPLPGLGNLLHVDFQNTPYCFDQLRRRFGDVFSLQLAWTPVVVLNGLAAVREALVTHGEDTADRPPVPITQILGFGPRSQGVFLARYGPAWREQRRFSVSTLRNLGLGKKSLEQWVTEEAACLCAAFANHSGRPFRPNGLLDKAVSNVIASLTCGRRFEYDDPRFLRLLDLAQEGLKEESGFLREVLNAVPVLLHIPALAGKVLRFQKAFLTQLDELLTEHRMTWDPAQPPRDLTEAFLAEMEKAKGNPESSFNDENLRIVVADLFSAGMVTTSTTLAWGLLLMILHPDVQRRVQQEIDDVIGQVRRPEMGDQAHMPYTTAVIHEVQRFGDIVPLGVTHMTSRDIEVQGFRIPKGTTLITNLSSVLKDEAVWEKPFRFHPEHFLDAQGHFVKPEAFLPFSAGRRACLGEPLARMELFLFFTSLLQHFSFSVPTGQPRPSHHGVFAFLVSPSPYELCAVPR
Experimental: as §1, §2, §3, §4

[5] = target: T4, CYP2C19 (Homo sapiens, UniProt P33261); assay: CYP inhibition in mixed human liver microsomes, CYP2C19 (S-mephenytoin)
T4 construct: Mixed human liver microsomes from 150 donors; tissue Corning 452117; host or cells: pooled human liver microsomes (150 donors)
T4 sequence (P33261 whole entry): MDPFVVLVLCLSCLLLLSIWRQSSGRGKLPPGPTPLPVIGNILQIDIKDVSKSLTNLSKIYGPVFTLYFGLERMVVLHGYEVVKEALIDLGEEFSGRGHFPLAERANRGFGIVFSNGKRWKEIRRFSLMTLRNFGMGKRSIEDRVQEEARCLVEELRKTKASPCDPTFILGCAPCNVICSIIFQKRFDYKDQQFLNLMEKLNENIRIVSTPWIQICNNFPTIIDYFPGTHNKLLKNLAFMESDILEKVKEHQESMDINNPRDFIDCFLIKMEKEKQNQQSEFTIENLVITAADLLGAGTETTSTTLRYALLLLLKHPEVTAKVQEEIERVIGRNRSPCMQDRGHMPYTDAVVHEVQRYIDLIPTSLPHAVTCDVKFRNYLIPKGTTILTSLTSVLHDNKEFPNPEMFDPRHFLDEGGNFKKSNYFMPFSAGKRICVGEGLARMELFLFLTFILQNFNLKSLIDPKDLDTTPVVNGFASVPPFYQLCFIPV
Experimental: as §1, §2, §3, §4

Compound: [2H]C([2H])([2H])Nc1nccc(Sc2c(C)nc(N3CCC4(CC3)Cc3ncccc3[C@H]4N)n3ccnc23)c1Cl [Example 3, (S)-1′-(8-((3-Chloro-2-((methyl-d3)amino)pyridin-4-yl)thio)-7-methylimidazo[1,2-c]pyrimidin-5-yl)-5,7-dihydrospiro[cyclopenta[b]pyridine-6,4′-piperidin]-5-amine]
- IC50 [1]: 14.7 µM
- IC50 [2]: > 20 µM
- IC50 at 5 min [3]: > 20 µM
- IC50 [4]: > 20 µM
- IC50 [5]: > 20 µM
